Source: US8344181B2, “N-2 adamantanyl-2-phenoxy-acetamide derivatives as 11-beta hydroxysteroid dehydrogenase inhibitors” (Janssen Pharmaceutica N.V., priority 2004, dated 2013)

What was measured:
11β-HSD2 = biological target: T1, 11β-HSD2 (Homo sapiens, UniProt P80365); test: Cellular assay of 11β-HSD2 activity in HepG2 cells; type: cell-based; conditions: 4 hour pre-incubation, 10^-5M to 10^-10M, read-out: HSD2 cellular HepG2 Score
T1 construct: endogenous in cells; host or cells: HepG2 (ATCC HB-8065)
T1 sequence (P80365 1-405): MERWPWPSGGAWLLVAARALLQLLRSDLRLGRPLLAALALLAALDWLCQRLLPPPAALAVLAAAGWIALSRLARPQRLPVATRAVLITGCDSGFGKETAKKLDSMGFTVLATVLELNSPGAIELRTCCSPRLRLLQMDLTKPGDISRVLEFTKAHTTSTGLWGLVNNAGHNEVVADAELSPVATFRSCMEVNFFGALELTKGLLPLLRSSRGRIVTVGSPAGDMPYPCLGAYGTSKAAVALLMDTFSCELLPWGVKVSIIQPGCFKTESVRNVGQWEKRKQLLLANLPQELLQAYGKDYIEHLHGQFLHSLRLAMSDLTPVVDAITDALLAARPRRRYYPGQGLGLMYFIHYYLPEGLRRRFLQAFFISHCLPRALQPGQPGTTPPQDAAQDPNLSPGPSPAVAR
Procedure: The effects on 11β-HSD2 activity was studied in HepG2 and LCC-PK1-cells HepG2-cells (ATCC HB-8065) were seeded in 12 well plates at a density of 100,000 cells/ml and grown at 37° C. in a humidified 5% CO2 atmosphere in MEM-Rega-3 medium supplemented with 10% heat inactivated foetal calf serum, 2 mM L-glutamine and sodium bicarbonate). Medium was refreshed twice a week.
Following a 4 hour pre-incubation with test compound, 0.5 μCi ^3H-cortisol or corticosterone, was added to the cultures. One hour later, the medium was extracted on Extrelut^3-columns with 15 ml diethyl ether and the extract was analysed by HPLC as described above.
(§1) As for the enzymatic assays, the compounds to be tested were taken from a stock solution and tested at a final concentration ranging from 10^−5M to 10^−10M. From the thus obtained dose response curves, the pIC50 value was calculated and scored as follows; Score 1=pIC50 value<5, Score 2=pIC50 value in the range of 5 to 6, Score 3=pIC50 value>6. (in this table NT stands for Not Tested).

11β-HSD1 = biological target: T2, 11β-HSD1 (Mus musculus, UniProt P50172); test: Cellular assay of 11β-HSD1 activity in differentiated 3T3-L1 cells; type: cell-based; conditions: 4 hour pre-incubation, 10^-5M to 10^-10M, read-out: HSD1 cellular 3T3-L1 Score
T2 construct: endogenous in cells; host or cells: 3T3-L1 (ATCC-CL-173), differentiated into adipocytes
Procedure: The effects on 11β-HSD1 activity was measured in differentiated 3T3-L1 cells and rat hepatocytes.
Mouse fibroblast 3T3-L1 cells (ATCC-CL-173) were seeded at a density of 16500 cells/ml in 12 well plates and grown for 7 days in DMEM medium (supplemented with 10% heat inactivated foetal calf serum, 2 mM glutamine and 25 mg gentamycin) at 37° C. in a humidified 5% CO2 atmosphere. Medium was refreshed twice a week. Fibroblasts were differentiated into adipocytes at 37° C. in a 5% CO2 humidified atmosphere in growth medium containing 2 μg/ml insulin, 55 μg/ml IBMX and 39.2 μg/ml dexamethasone.
Primary hepatocytes from male rats were seeded on normal Falcon 12 well plates at a density of 250000 cells/well and incubated for 16 hours at 37° C. in a 5% CO2 humidified atmosphere in DMEM-HAM's F12 medium containing 5% Nu-serum, 100 U/ml penicillin, 100 μg/ml streptomycin, 0.25 μg/ml amphotericin B, 50 μg/ml gentamycin sulfate, 5 μg/ml insulin and 392 ng/ml dexamethasone. Following a 4 hour pre-incubation with test compound, 0.5 μCi ^3H-cortisone or dehydrocorticosterone, was added to the 3T3-L1 cultures. One hour later, the medium was extracted on Extrelut^3-columns with 15 ml diethyl ether and the extract was analysed by HPLC as described above. The effects of JNJ-compounds on rat hepatocyte HSD1 activity was measured after an incubation period of 90 minutes with 0.5 μCi^3H-dehydrocorticosterone. Corticosterone formation was analysed by HPLC.
as §1

T2 sequence (P50172 whole entry): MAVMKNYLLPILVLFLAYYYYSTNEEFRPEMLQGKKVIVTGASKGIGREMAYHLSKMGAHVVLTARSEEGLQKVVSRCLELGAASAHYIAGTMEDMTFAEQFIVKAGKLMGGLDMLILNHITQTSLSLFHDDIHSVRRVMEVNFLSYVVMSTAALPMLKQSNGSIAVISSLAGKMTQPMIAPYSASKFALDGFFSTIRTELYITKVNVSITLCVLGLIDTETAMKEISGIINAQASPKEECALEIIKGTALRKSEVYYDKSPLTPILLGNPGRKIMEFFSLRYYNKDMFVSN

SMILES	IC50 (11β-HSD2) [µM]	IC50 (11β-HSD1) [µM]
Cc1ccc(S(=O)(=O)N[C@@]23CC4C[C@H](C2)[C@H](NC(=O)C(C)(C)Oc2ccc(Cl)cc2C)[C@@H](C4)C3)cc1 [Compound 77]	> 10	< 1
Cc1ccccc1NC(C)(C)C(=O)N[C@H]1[C@@H]2CC3C[C@H]1C[C@](O)(C3)C2 [Compound 34]	1 to 10	< 1
Cc1ccc(OC(C)(C)C(=O)N[C@@H]2[C@@H]3CC4C[C@H]2C[C@](OCc2ccccc2)(C4)C3)cc1 [Compound 48]	< 1	< 1
COc1cccc(NC(C)(C)C(=O)N[C@H]2[C@@H]3CC4C[C@H]2C[C@](NC(C)=O)(C4)C3)c1 [Compound 66]	1 to 10	< 1
Cc1cc(Cl)ccc1OC(C)(C)C(=O)N[C@H]1[C@@H]2CC3C[C@H]1C[C@](N(C)C)(C3)C2 [Compound 46]	> 10	< 1
COc1cc(OC)cc(OC(C)(C)C(=O)N[C@H]2[C@@H]3CC4C[C@H]2C[C@](O)(C4)C3)c1 [Compound 17]	1 to 10	< 1
CC(=O)N[C@@]12CC3C[C@H](C1)[C@H](NC(=O)C(C)(C)Nc1cccc(C)c1)[C@@H](C3)C2 [Compound 70]	1 to 10	< 1
COc1ccc(NC(C)(C)C(=O)N[C@H]2[C@@H]3CC4C[C@H]2C[C@](O)(C4)C3)cc1 [Compound 58]	> 10	< 1
O=C(N[C@H]1[C@@H]2CC3C[C@H]1C[C@](O)(C3)C2)[C@@H]1CCc2cc(F)ccc2O1 [Compound 22]	1 to 10	< 1
CCOC(=O)N[C@@]12CC3C[C@H](C1)[C@H](NC(=O)C(C)(C)Oc1ccc(Cl)cc1C)[C@@H](C3)C2 [Compound 45]	1 to 10	< 1
COc1ccc(NC(C)(C)C(=O)N[C@H]2[C@@H]3CC4C[C@H]2C[C@](NC(C)=O)(C4)C3)cc1 [Compound 76]	> 10	< 1
